Results taken from patent US9879036B2, “Mitochondrial aldehyde dehydrogenase-2 binding compounds and methods of use thereof” (Aviv Therapeutics, Inc., priority 2014, dated 2018).
Positions count from the first letter of the chain named.

Key:
Type in all cases: biochemical
ALDH2 = target: T1, ALDH2 (Homo sapiens, UniProt P05091); assay: ALDH2 activity with 20 μM of the compound (Table 3); conditions: 20 μM compound
T1 construct: His-tag (N); made in house; host or cells: E. coli BL21
T1 sequence (P05091 18-517): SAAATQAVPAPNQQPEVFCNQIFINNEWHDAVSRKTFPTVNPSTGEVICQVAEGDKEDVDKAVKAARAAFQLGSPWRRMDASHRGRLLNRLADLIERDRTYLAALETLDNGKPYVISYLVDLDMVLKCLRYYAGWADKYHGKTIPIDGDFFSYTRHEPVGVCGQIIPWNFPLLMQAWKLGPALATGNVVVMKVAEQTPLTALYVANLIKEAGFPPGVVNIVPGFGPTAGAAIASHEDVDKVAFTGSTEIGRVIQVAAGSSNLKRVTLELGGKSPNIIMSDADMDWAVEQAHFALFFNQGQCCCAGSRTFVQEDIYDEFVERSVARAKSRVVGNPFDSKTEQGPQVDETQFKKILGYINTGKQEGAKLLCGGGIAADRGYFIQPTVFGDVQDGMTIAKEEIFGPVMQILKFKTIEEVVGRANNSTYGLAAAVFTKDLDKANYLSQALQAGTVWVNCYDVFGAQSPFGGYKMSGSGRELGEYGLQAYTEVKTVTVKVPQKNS
Description: (§1) ALDH2 catalyzes the oxidative reaction of substrate acetaldehyde to acetic acid using NAD^+ as a cofactor. Enzymatic activity, or catalytic rate, of aldehyde dehydrogenase (ALDH2) are measured spectrophotometrically at UV wavelength λ340 nm by the accumulation of reduced product NADH derived from NAD^+. Absorbance at λ340 nm is quantitatively proportional to the amount of NADH being produced over time (6.22 O.D. unit=1 mmol of NADH, measured in a 1-cm width standard cuvette). This method is well-established in the literature [e.g. Rex et al., Alcohol Clin. Exp. Res. 9, 147 (1985)].
as §1, with “can be” for “are”
(§2) ALDH2 catalyzes the oxidative reaction of substrate acetaldehyde to acetic acid using NAD^+ as a cofactor. Enzymatic activity, or catalytic rate, of aldehyde dehydrogenase (ALDH2) can be measured spectrophotometrically at UV wavelength λ340 nm by the accumulation of reduced product NADH derived from NAD^+. Because compounds of formula (I) are considered to be agonists or “activators” of ALDH2 the enzymatic activity measured will exceed 100% of the baseline enzymatic activity of the enzyme in its normal activation state. As the concentration of the compounds of formula (I) decreases from 20 micromolar to 0.16 micromolar in the presence of ALDH, a decrease in the activation of enzymatic activity is observed for the wild-type ALDH2*1/*1 and the heterozygous form ALDH2*1/*2.

ALDH2*1/*1 = target: T2, ALDH2*1/*1 (Homo sapiens, UniProt P05091); assay: ALDH2 enzymatic activity, NADH accumulation at 340 nm, acetaldehyde substrate, wild type; conditions: relative to baseline enzymatic activity (100%); for activity at 2.5 µM: 2.5 μM compound; for activity at 5 µM: 5 μM compound; for activity at 10 µM: 10 μM compound; for activity at 20 µM: 20 μM compound
T2 construct: His-tag (N); made in house; host or cells: E. coli BL21 (pTrcHis vector)
T2 sequence (P05091 18-517): T1 sequence (P05091 18-517)
Description: as §1
as §1, with “can be” for “are”
(§3) Cloning, expression and purification of human ALDH2 wild type and ALDH2*2 recombinant mutant enzymes: Full-length wild type human ALDH2 cDNA was purchased from ATCC (No. MGC-1806. GenBank ID: BC002967). The 18-amino acid mitochondria transport signal sequence was removed by PCR and cloned into the NheI/HindIII sites of a His-tag vector, pTrcHis, using standard molecular cloning techniques. The human ALDH2* cDNA construct containing the Asian E487K mutation was obtained by site-directed mutagenesis to create the E487K substitution of the wild type ALDH2. Both human clones were designed to express a recombinant protein with the His-tag at the N-terminus of the protein. For the co-expression experiments of human ALDH2 wild type and ALDH2*2 heterotetramers, a wild type ALDH2 gene and a ALDH2 E487K gene were inserted separately into the two multiple cloning sites of pETDuet-1 vector. (Novagen, CA, USA). All the vectors were transformed into BL21 E. coli host cells and subjected to 0.5 mM IPTG induction for protein expression at 30° C. Purifications of the recombinant proteins by affinity nickel columns (HisTrap, GE Healthy Science, USA) were carried out using standard protocols according to manufacturer's instructions (Novagen, USA).
as §2

ALDH2*1/*2 = target: T3, ALDH2*1/*2 (Homo sapiens, UniProt P05091, E504K); assay: ALDH2 enzymatic activity, NADH accumulation at 340 nm, acetaldehyde substrate, heterozygous form; conditions: relative to baseline enzymatic activity (100%); for activity at 2.5 µM: 2.5 μM compound; for activity at 5 µM: 5 μM compound; for activity at 10 µM: 10 μM compound; for activity at 20 µM: 20 μM compound
T3 construct: His-tag; made in house; host or cells: E. coli BL21 (pETDuet-1 co-expression)
T3 sequence (P05091 18-517): T1 sequence (P05091 18-517)
T3 sequence (P05091 18-517 E504K): T1 sequence (P05091 18-517) with E487K
Description: as §1
as §1, with “can be” for “are”
as §3, §2

| SMILES | activity at 20 µM (ALDH2) [%] | activity at 2.5 µM (ALDH2*1/*1) [%] | activity at 5 µM (ALDH2*1/*1) [%] | activity at 10 µM (ALDH2*1/*1) [%] | activity at 20 µM (ALDH2*1/*1) [%] | activity at 2.5 µM (ALDH2*1/*2) [%] | activity at 5 µM (ALDH2*1/*2) [%] | activity at 10 µM (ALDH2*1/*2) [%] | activity at 20 µM (ALDH2*1/*2) [%] |
| --- | --- | --- | --- | --- | --- | --- | --- | --- | --- |
| COc1ccc(CNC(=O)c2cc(-c3ccncc3CO)cnc2OCC2CC2)cc1F [AC12] | > 250 | 166 | 211 | 305 | 379 | 179 | 236 | 286 | 350 |
| COc1ccc(CNC(=O)c2cc(-c3cscc3CO)ccc2OCC2CC2)cc1F [AC29] | > 250 | 283 | 334 | 422 | 445 | 260 | 349 | 392 | 423 |
| COc1ccc(CNC(=O)c2cc(-c3cnccc3CO)ccc2OCC2CC2)cc1F [AC5] | > 250 | 266 | 330 | 352 | 487 | 318 | 382 | 428 | 504 |
| COc1ccc(CNC(=O)c2cc(-c3cccnc3CO)ccc2OCC2CC2)cc1F [AC7] | > 250 | 133 | 181 | 266 | 331 | 176 | 244 | 291 | 434 |
| COc1ccc(CNC(=O)c2cc(-c3ccccc3CO)cnc2OCC2CC2)cc1F [AC1, 2-(cyclopropylmethoxy)-N-(3-fluoro-4-methoxybenzyl)-5-(2-(hydroxymethyl)phenyl)nicotinamide] | > 250 | 175 | 242 | 288 | 412 | 220 | 294 | 383 | 453 |
| COc1ccc(CNC(=O)c2cc(-c3cccc(F)c3CO)cnc2OCC2CC2)cc1F [AC18] | 150 to 250 | 119 | 131 | 171 | 187 | 127 | 145 | 172 | 197 |

Results, then the compound that gave them:

| activity at 20 µM (ALDH2) [%] | activity at 2.5 µM (ALDH2*1/*1) [%] | activity at 5 µM (ALDH2*1/*1) [%] | activity at 10 µM (ALDH2*1/*1) [%] | activity at 20 µM (ALDH2*1/*1) [%] | activity at 2.5 µM (ALDH2*1/*2) [%] | activity at 5 µM (ALDH2*1/*2) [%] | activity at 10 µM (ALDH2*1/*2) [%] | activity at 20 µM (ALDH2*1/*2) [%] | SMILES |
| --- | --- | --- | --- | --- | --- | --- | --- | --- | --- |
| > 250 | 215 | 275 | 328 | 443 | 256 | 338 | 408 | 471 | COc1ccc(CNC(=O)c2cc(-c3ccccc3CO)ccc2OCC2CC2)cc1F [AC2, 4-(cyclopropylmethoxy)-N-(3-fluoro-4-methoxybenzyl)-2′-(hydroxymethyl)-[1,1′-biphenyl]-3-carboxamide] |
| > 250 | 132 | 143 | 214 | 236 | 133 | 163 | 191 | 230 | COc1ccc(CNC(=O)c2cc(-c3c(F)cccc3CO)cnc2OCC2CC2)cc1F [AC19] |
| 150 to 250 | 134 | 138 | 162 | 189 | 103 | 121 | 157 | 194 | COc1ccc(CNC(=O)c2cc(-c3c(CO)ccc[n+]3[O-])ccc2OCC2CC2)cc1F [AC14, 2-(4-(cyclopropylmethoxy)-3-((3-fluoro-4-methoxybenzyl)carbamoyl)phenyl)-3-(hydroxymethyl)pyridine 1-oxide] |
| > 250 | 172 | 263 | 313 | 437 | 160 | 194 | 253 | 143 | COc1ccc(CNC(=O)c2cc(-c3c(F)cccc3CO)ccc2OCC2CC2)cc1F [AC22] |
| > 250 | 210 | 262 | 291 | 375 | 187 | 252 | 263 | 196 | COc1ccc(CNC(=O)c2cc(-c3ccc(F)cc3CO)ccc2OCC2CC2)cc1F [AC23] |
| > 250 | 229 | 262 | 340 | 318 | 156 | 173 | 176 | 195 | COc1ccc(CNC(=O)c2cc(-c3cc(F)ccc3CO)ccc2OCC2CC2)cc1F [AC17] |
| > 250 | 161 | 209 | 272 | 370 | 110 | 198 | 247 | 250 | COc1ccc(CNC(=O)c2cc(-c3cccc(F)c3CO)ccc2OCC2CC2)cc1F [AC21] |
